Experiments:
[1] = human, serum
[2] = Presence of at least one case with successful reintroduction. [column 'REINT' in source]; settings: human
[3] = human, serum; remark: listed apart in the source
[4] = human
[5] = human; remark: listed apart in the source
[6] = human; remark: listed apart in the source
[7] = human; remark: listed apart in the source
[8] = Times to onset, minimal and maximal, observed in the indexed observations. [column 'DELAI' in source]; settings: human
[9] = Highest frequency of acute liver toxicity observed during clinical trials, expressed as a percentage. [column '% AIGUE' in source]; settings: human
[10] = Proposed mechanism(s) of liver damage. [column 'MEC' in source]; settings: human
[11] = Highest frequency of moderate liver toxicity observed during clinical trials, expressed as a percentage. [column '% BIOL' in source]; settings: human
[12] = Comments (NB not yet translated). [column 'COMMENTAIRES' in source]; settings: human
[13] = human; remark: listed apart in the source
[14] = human; remark: listed apart in the source
[15] = human; remark: listed apart in the source
[16] = human, serum, 4383 h
[17] = human; remark: listed apart in the source
[18] = human; remark: listed apart in the source
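Throughout, for Hepatotoxicity (association with vascular disease): count of indexed literature references reporting vascular liver injury in humans, e.g. peliosis hepatitis, hepatic veno-occlusive disease or Budd-Chiari syndrome.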
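Throughout, for Hepatotoxicity (benign tumour): value is a count of indexed literature references citing a benign tumour confirmed by histopathology.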
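Throughout, for Hepatotoxicity (choleostasis): human cholestatic liver injury, shown by histopathology or by peak ALT or AST elevation over alkaline phosphatase ratio below 2, value counts indexed literature reports.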
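Throughout, for Hepatotoxicity (chronic liver disease): chronic liver injury confirmed by histopathology or persistently raised serum aminotransferase activity beyond 6 months, value given as the count of indexed literature references.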
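Throughout, for Hepatotoxicity (cirrhosis): value is a count of indexed literature references reporting cirrhosis confirmed by histopathology.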
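Throughout, for Hepatotoxicity (cytolytic): human cytolytic liver injury, shown by histopathology or by a ratio above 5 of peak ALT or AST elevation to alkaline phosphatase elevation, value counts indexed references.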
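Throughout, for Hepatotoxicity (granulomatous hepatitis): value is a count of indexed literature references reporting granulomatous liver disease confirmed by histopathology.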
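Throughout, for Hepatotoxicity (malignant tumour): malignant tumour confirmed by histopathology, value gives the count of indexed literature references reporting it.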
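Throughout, for Hepatotoxicity (severe hepatitis): human clinical data: severe hepatitis, meaning potentially life-threatening liver failure or clinically observed cases, the value counts how many indexed literature references report it.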
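Throughout, for Hepatotoxicity (steatosis): steatosis confirmed by histopathology, value is the count of indexed references.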

Compound | Hepatotoxicity (acute) [1] | Hepatotoxicity (successful reintroduction) [2] | Hepatotoxicity (moderate) [3] | Hepatotoxicity (cytolytic) [4] | Hepatotoxicity (association with vascular disease) [5] | Hepatotoxicity (steatosis) [6] | Hepatotoxicity (malignant tumour) [7] | Hepatotoxicity (time to onset) [8] | Hepatotoxicity (acute) [9] [%] | Hepatotoxicity (mechanism) [10] | Hepatotoxicity (moderate) [11] [%] | Hepatotoxicity (comment) [12] | Hepatotoxicity (cirrhosis) [13] | Hepatotoxicity (benign tumour) [14] | Hepatotoxicity (granulomatous hepatitis) [15] | Hepatotoxicity (chronic liver disease) [16] | Hepatotoxicity (severe hepatitis) [17] | Hepatotoxicity (choleostasis) [18] | Hepatotoxicity (acute) ([9]; Liver) [%] | Hepatotoxicity (moderate) ([11]; Liver) [%] | other results
NNc1nnc(NN)c2ccccc12 [DIHYDRALAZINE] | 21 | yes | 0 | 17 | 0 | 1 | 0 | 2 days - 3 years | 0.1 | Allergic | 0 | AC_ANTI-MF/-M/-N/-CYP1A2 | 0 | 0 | 0 | 4 | 1 | 5 | – | – | –
COc1ccc([C@@H]2Sc3ccccc3N(CCN(C)C)C(=O)[C@@H]2OC(C)=O)cc1 [DILTIAZEM] | 11 | yes | 20 | 6 | 0 | 1 | 0 | 1 day - 5 months | 2.4 | Allergic | 6 | RC/AMLODIPINE | 0 | 0 | 2 | 0 | 1 | 5 | – | – | –
CN(C)CCC=C1c2ccccc2COc2ccccc21 [DOXEPIN] | 2 | yes | 3 | 2 | 0 | 0 | 0 | 1 week | 0 | Allergic | 33.3 | AC_ANTI-ML | 0 | 0 | 0 | 0 | 0 | 1 | – | – | –
CC[C@H]1OC(=O)[C@H](C)[C@@H](O[C@H]2C[C@@](C)(OC)[C@@H](O)[C@H](C)O2)[C@H](C)[C@@H](O[C@@H]2O[C@H](C)C[C@H](N(C)C)[C@H]2O)[C@](C)(O)C[C@@H](C)C(=O)[C@H](C)[C@@H](O)[C@]1(C)O [ERYTHROMYCIN] | 72 | yes | 19 | 20 | 0 | 0 | 0 | 12 hours - 5 weeks | 3 | Allergic, Toxic | 38 | CHOLANGITE #CBP RC/AMOXICILLINE/TROLEANDOMYCINE | 0 | 0 | 0 | 0 | 1 | 55 | – | – | –
CCCCOCC(CN1C(=O)NC(=O)C(CC)(c2ccccc2)C1=O)OC(N)=O (configuration not stated) [FEBARBAMATE] | 9 | yes | 2 | 9 | 0 | 1 | 0 | 8 days - 15 months | 0 | Allergic | 0 | AC_ANTI-N/-LM I/PAROXETINE | 0 | 0 | 1 | 0 | 5 | 1 | – | – | –
CC(C)OC(=O)C(C)(C)Oc1ccc(C(=O)c2ccc(Cl)cc2)cc1 [FENOFIBRATE] | 13 | yes | 27 | 11 | 0 | 0 | 0 | 1 day - 3 years | – | Allergic | – | RC/CLOFIBRATE CHOLESTASE_PROLONGEE DUCTOPENIE AC_ANTI-ML/-N | 1 | 0 | 0 | 4 | – | 5 | 2.7 | 52.9 | Hepatotoxicity (severe hepatitis) ([17]; Liver): 0
O=C(OCC(O)CO)c1ccccc1Nc1ccnc2cc(Cl)ccc12 (configuration not stated) [GLAFENINE] | 14 | yes | 2 | – | 0 | 0 | 0 | 2 days - 8 months | – | – | – | LITHIASE | 5 | 0 | – | 5 | – | – | 0 | 0 | Hepatotoxicity (cytolytic) ([4]; Liver): 12; Hepatotoxicity (mechanism) ([10]; Liver): Allergic; Hepatotoxicity (granulomatous hepatitis) ([15]; Liver): 0; Hepatotoxicity (severe hepatitis) ([17]; Liver): 7; Hepatotoxicity (choleostasis) ([18]; Liver): 2
COc1ccc(Cl)cc1C(=O)NCCc1ccc(S(=O)(=O)NC(=O)NC2CCCCC2)cc1 [GLYBURIDE] | 14 | yes | 7 | 2 | 0 | 0 | 0 | 2 weeks - 7 years | 0 | Allergic, Dose-dependant | 6.7 | CHOLANGITE DUCTOPENIE | 1 | 0 | 2 | 0 | 0 | 10 | – | – | –
NNc1nncc2ccccc12 [HYDRALAZINE] | 9 | yes | 4 | – | 0 | 0 | 0 | 2 days - 3 years | – | – | – | CHOLANGITE AC_ANTI-N | 0 | 0 | – | 3 | – | – | 0 | 0 | Hepatotoxicity (cytolytic) ([4]; Liver): 6; Hepatotoxicity (mechanism) ([10]; Liver): Allergic, Toxic; Hepatotoxicity (granulomatous hepatitis) ([15]; Liver): 6; Hepatotoxicity (severe hepatitis) ([17]; Liver): 2; Hepatotoxicity (choleostasis) ([18]; Liver): 3
